According to ChEMBL document CHEMBL4725262, “Potent antiviral activity of novel multi-substituted 4-anilinoquin(az)olines” (Bioorg Med Chem Lett, 2020):

Columns and labels:
dengue virus type 2 [1] = assay: Antiviral activity against DENV2 New Guinea C strain infected in Huh7 cells after 48 hrs by renilla luciferase assay; format: functional, organism-based, Huh-7; settings: for EC90: Huh-7, time 48 hrs
[2] = Cytotoxicity against human Huh-7 cells infected with DENV2 by alamar blue assay; format: cell-based
dengue virus type 2 [3] = assay: Potency index, ratio of erlotinib EC50 to compound EC50 for antiviral activity against DENV2 New Guinea C strain infected in Huh7 cells after 48 hrs by renilla luciferase assay; format: functional, Huh-7
[4] = Selectivity index, ratio of CC50 for human Huh7 cells to EC50 for DENV2 New Guinea C; format: toxicity; settings: read-out: Ratio CC50/EC50
[5] = Dengue virus, New Guinea C, Huh-7, 48 h

Row | SMILES | EC50 (dengue virus type 2 [1]; [5]) [µM] | CC50 [2] [µM] | Ratio EC50 (dengue virus type 2 [3]) | EC50 (dengue virus type 2 [1]; huh-7) [µM] | EC90 (dengue virus type 2 [1]; Dengue virus, New Guinea C) [nM] | selectivity ratio [4]
1 | COc1ccc2ncnc(Nc3cc(OC)c(OC)c(OC)c3)c2c1 | > 10 | > 10 | – | – | – | –
2 | COc1cc(Nc2ncnc3ccc(Cl)cc23)cc(OC)c1OC | 1 | > 10 | >10 | – | – | –
3 | Clc1ccc(-c2ccc(-c3nc(NCc4cccnc4)nc4ccccc34)s2)cc1 | 0.07 | – | – | – | – | –
4 | CC(C)(C)Oc1cccc2nc(N)nc(N)c12 | 0.0028 | – | – | – | – | –
5 | COc1cc2ncnc(Nc3cc(OC)c(OC)c(OC)c3)c2cc1OC | 6.6 | > 10 | – | – | – | –
6 | COc1cc2nccc(Nc3cc(OC)c(OC)c(OC)c3)c2cc1OC | > 10 | > 10 | – | – | – | –
7 | COc1cc(Nc2ccnc3cc(Cl)ccc23)cc(OC)c1OC | > 10 | > 10 | – | – | – | –
8 | COc1cc(-c2cnc3c(N4C[C@@H](C)O[C@@H](C)C4)snc3c2)ccc1N | 0.87 | – | – | – | – | –
9 | COc1ccc(-c2cnc3[nH]cc(C#Cc4cccnc4)c3c2)cc1OC | 0.72 | – | – | – | – | –
10 | COc1cc(Nc2ccnc3ccc(Br)cc23)cc(OC)c1OC | 0.08 | > 10 | >80 | 0.122 | – | –
11 | COc1cc(Nc2ncnc3ccc(C(F)(F)F)cc23)cc(OC)c1OC | > 10 | > 10 | – | – | – | –
12 | CCN(CC)c1ccc(Oc2ccc(-c3[nH]c4cccc(F)c4c(=O)c3C)cc2F)cc1 | 0.007 | – | – | – | – | –
13 | COc1cc(N(C)c2ccnc3ccc(C(F)(F)F)cc23)cc(OC)c1OC | 10 | > 10 | – | – | – | –
14 | COc1cc(Nc2ccnc3ccc(I)cc23)cc(OC)c1OC | 0.82 | > 10 | – | – | – | –
15 | COc1cc(Nc2cc(C)nc3ccc(C(F)(F)F)cc23)cc(OC)c1OC | 0.91 | > 10 | – | – | – | –
16 | COc1cc(Nc2ccnc3ccc(Cl)cc23)cc(OC)c1OC | 0.52 | > 10 | – | – | – | –
17 | COc1cc(Nc2ccnc3cc(C#N)ccc23)cc(OC)c1OC | 3.3 | > 10 | – | – | – | –
18 | COc1cc(Nc2ccnc3ccc(C#N)cc23)cc(OC)c1OC | 0.76 | > 10 | – | – | – | –
19 | COc1ccc2c(Nc3cc(OC)c(OC)c(OC)c3)ccnc2c1 | > 10 | > 10 | – | – | – | –
20 | COc1cc(Nc2ccnc3ccccc23)cc(OC)c1OC | 8.2 | > 10 | – | – | – | –
21 | COc1ccc2nccc(Nc3cc(OC)c(OC)c(OC)c3)c2c1 | 0.75 | > 10 | 8 | – | – | –
22 | COc1cc(Nc2ccnc3cc(I)ccc23)cc(OC)c1OC | 3.6 | > 10 | 2 | – | – | –

Row | SMILES | EC50 (dengue virus type 2 [1]; [5]) [µM] | CC50 [2] [µM] | Ratio EC50 (dengue virus type 2 [3]) | EC50 (dengue virus type 2 [1]; huh-7) [µM] | EC90 (dengue virus type 2 [1]; Dengue virus, New Guinea C) [nM] | selectivity ratio [4]
23 | COc1cc(Nc2ncnc3ccccc23)cc(OC)c1OC | 2.8 | > 10 | 2 | – | – | –
24 | COc1cc(Nc2ccnc3ccc(F)cc23)cc(OC)c1OC | 5.2 | > 10 | – | – | – | –
25 | COc1cc(Nc2c(C#N)cnc3ccc(S(C)(=O)=O)cc23)cc(OC)c1OC | > 10 | > 10 | – | – | – | –
26 | COc1cc(Nc2c(C#N)cnc3ccc(Br)cc23)cc(OC)c1OC | 0.082 | > 10 | >80 | – | 151 | –
27 | COc1cc(Nc2ccnc3cc(C(F)(F)F)ccc23)cc(OC)c1OC | 6.8 | > 10 | – | – | – | –
28 | COc1cc(Nc2ccnc3ccc(S(C)(=O)=O)cc23)cc(OC)c1OC | 0.84 | > 10 | – | – | – | –
29 | COc1cc(Nc2c(C#N)cnc3cc(Cl)ccc23)cc(OC)c1OC | > 10 | > 10 | – | – | – | –
30 | COc1cc(Nc2c(C#N)cnc3cc(Br)ccc23)cc(OC)c1OC | > 10 | > 10 | – | – | – | –
31 | COc1cc(Nc2ncnc3ccc(F)cc23)cc(OC)c1OC | > 10 | > 10 | – | – | – | –
32 | COc1ccc2c(Nc3cc(OC)c(OC)c(OC)c3)c(C#N)cnc2c1 | > 10 | > 10 | – | – | – | –
33 | COc1cc(Nc2cc(C)nc3ccc(Br)cc23)cc(OC)c1OC | 0.28 | 2.5 | >20 | – | 530 | 10
34 | COc1cc(Nc2ncnc3ccc(S(C)(=O)=O)cc23)cc(OC)c1OC | > 10 | > 10 | – | – | – | –
35 | COc1cc(Nc2ccnc3cc(F)ccc23)cc(OC)c1OC | 4.1 | > 10 | – | – | – | –
36 | COc1cc(Nc2c(C#N)cnc3ccc(Cl)cc23)cc(OC)c1OC | 1.3 | > 10 | – | – | – | –
37 | COc1cc(Nc2cc(C)nc3ccc(F)cc23)cc(OC)c1OC | 2.3 | > 10 | – | – | – | –
38 | COc1cc(Nc2cc(C)nc3cc(C(F)(F)F)ccc23)cc(OC)c1OC | > 10 | > 10 | – | – | – | –
39 | COc1ccc2nc(C)cc(Nc3cc(OC)c(OC)c(OC)c3)c2c1 | 10 | > 10 | – | – | – | –
40 | COc1cc(Nc2ncnc3cc(F)c(F)cc23)cc(OC)c1OC | > 10 | > 10 | >10 | – | – | –
41 | COc1cc(Nc2c(C#N)cnc3ccc(I)cc23)cc(OC)c1OC | 0.079 | > 10 | >80 | – | 125 | –
42 | COc1cc(Nc2ccnc3cc(F)c(F)cc23)cc(OC)c1OC | 1 | 5.5 | – | – | – | –
43 | COc1cc(Nc2ccnc3c(C)cccc23)cc(OC)c1OC | > 10 | > 10 | – | – | – | –
44 | COc1ccc2c(Nc3cc(OC)c(OC)c(OC)c3)cc(C)nc2c1 | > 10 | > 10 | – | – | – | –

Row | SMILES | EC50 (dengue virus type 2 [1]; [5]) [µM] | CC50 [2] [µM] | Ratio EC50 (dengue virus type 2 [3]) | EC50 (dengue virus type 2 [1]; huh-7) [µM] | EC90 (dengue virus type 2 [1]; Dengue virus, New Guinea C) [nM] | selectivity ratio [4]
45 | COc1cc(Nc2c(C#N)cnc3cc(I)ccc23)cc(OC)c1OC | 4.7 | > 10 | – | – | – | –
46 | COc1cc(Nc2ncnc3cc(Cl)ccc23)cc(OC)c1OC | 6.1 | > 10 | – | – | – | –
47 | COc1cc(Nc2ccnc3cc(Br)ccc23)cc(OC)c1OC | 8.4 | > 10 | – | – | – | –
48 | COc1cc2nc(C)cc(Nc3cc(OC)c(OC)c(OC)c3)c2cc1OC | 10 | > 10 | – | – | – | –
49 | COc1cc(Nc2ncnc3ccc(Br)cc23)cc(OC)c1OC | 0.97 | > 10 | – | – | – | –
50 | COc1cc(Nc2ncnc3cc(I)ccc23)cc(OC)c1OC | 2.9 | 5.8 | – | – | – | –
51 | COc1cc(Nc2c(C#N)cnc3ccccc23)cc(OC)c1OC | > 10 | > 10 | – | – | – | –
52 | COc1cc(Nc2ncnc3ccc(I)cc23)cc(OC)c1OC | 1 | > 10 | – | – | – | –
53 | COc1cc(Nc2ncnc3ccc(C#N)cc23)cc(OC)c1OC | 3.7 | > 10 | – | – | – | –
54 | COc1cc(Nc2ncnc3cc(C(F)(F)F)ccc23)cc(OC)c1OC | 5.1 | > 10 | – | – | – | –
55 | COc1ccc2c(Nc3cc(OC)c(OC)c(OC)c3)ncnc2c1 | 2.7 | > 10 | 2 | – | – | –
56 | COc1ccc2ncc(C#N)c(Nc3cc(OC)c(OC)c(OC)c3)c2c1 | 3.1 | > 10 | – | – | – | –
57 | COc1cc(Nc2ncnc3cc(F)ccc23)cc(OC)c1OC | > 10 | > 10 | – | – | – | –
58 | COc1cc(Nc2ncnc3cc(C#N)ccc23)cc(OC)c1OC | 1.4 | > 10 | – | – | – | –
59 | COc1cc(Nc2ncnc3ccc(C)cc23)cc(OC)c1OC | > 10 | > 10 | – | – | – | –
60 | COc1cc(Nc2cc(C)nc3ccccc23)cc(OC)c1OC | 8 | > 10 | – | – | – | –
61 | COc1cc(Nc2ncnc3cc(Br)ccc23)cc(OC)c1OC | 2 | > 10 | – | – | – | –
62 | COc1cc(Nc2ccnc3ccc(C(C)(C)C)cc23)cc(OC)c1OC | 7.4 | > 10 | – | – | – | –
63 | COc1cc(Nc2ccnc3ccc(C(F)(F)F)cc23)cc(OC)c1OC | 0.59 | > 10 | – | – | – | –
64 | COc1cc2ncc(C#N)c(Nc3cc(OC)c(OC)c(OC)c3)c2cc1OC | 5.5 | > 10 | – | – | – | –
65 | C#Cc1cccc(Nc2ncnc3cc(OCCOC)c(OCCOC)cc23)c1 [ERLOTINIB] | 6.5 | – | – | – | – | –
